From the NIST ThermoML archive (doi:10.1016/j.fluid.2007.07.016)

Tests used:
[1] = Liquid; for viscosity: Capillary tube (Ostwald / Ubbelohde) method; for speed of sound: Linear variable-path acoustic interferometer
[2] = xn = mol fraction of the nth substance listed; conditions: 101 kPa, Liquid; for viscosity: Capillary tube (Ostwald / Ubbelohde) method; for speed of sound: Linear variable-path acoustic interferometer

Cc1ccccc1C [1,2-dimethylbenzene]
[1]
Conditions | speed of sound, 288.15 K [m/s] | speed of sound, 298.15 K [m/s] | speed of sound, 308.15 K [m/s] | speed of sound, 318.15 K [m/s] | viscosity, 288.15 K [mPa·s] | viscosity, 298.15 K [mPa·s] | viscosity, 308.15 K [mPa·s] | viscosity, 318.15 K [mPa·s]
101 kPa | 1388.5 | – | – | – | 0.8623 | – | – | –
101.33 kPa | – | 1350.3 | 1321.4 | 1285.8 | – | 0.7576 | 0.669 | 0.5972

Cc1cc(C)cc(C)c1 [1,3,5-trimethylbenzene]
[1]
Conditions | speed of sound, 288.15 K [m/s] | speed of sound, 298.15 K [m/s] | speed of sound, 308.15 K [m/s] | speed of sound, 318.15 K [m/s] | viscosity, 288.15 K [mPa·s] | viscosity, 298.15 K [mPa·s] | viscosity, 308.15 K [mPa·s] | viscosity, 318.15 K [mPa·s]
101 kPa | 1412.3 | – | – | – | 0.7592 | – | – | –
101.33 kPa | – | 1369.8 | 1325.2 | 1279 | – | 0.6572 | 0.5792 | 0.5066

Cc1cccc(C)c1 [1,3-dimethylbenzene]
[1]
Conditions | speed of sound, 288.15 K [m/s] | speed of sound, 298.15 K [m/s] | speed of sound, 308.15 K [m/s] | speed of sound, 318.15 K [m/s] | viscosity, 288.15 K [mPa·s] | viscosity, 298.15 K [mPa·s] | viscosity, 308.15 K [mPa·s] | viscosity, 318.15 K [mPa·s]
101 kPa | 1373.2 | – | – | – | 0.6696 | – | – | –
101.33 kPa | – | 1326.6 | 1281 | 1243 | – | 0.588 | 0.5229 | 0.4684

Cc1ccc(C)cc1 [1,4-dimethylbenzene]
[1]
Conditions | speed of sound, 288.15 K [m/s] | speed of sound, 298.15 K [m/s] | speed of sound, 308.15 K [m/s] | speed of sound, 318.15 K [m/s] | viscosity, 288.15 K [mPa·s] | viscosity, 298.15 K [mPa·s] | viscosity, 308.15 K [mPa·s] | viscosity, 318.15 K [mPa·s]
101 kPa | 1357.5 | – | – | – | 0.7084 | – | – | –
101.33 kPa | – | 1316.4 | 1268 | 1230.3 | – | 0.611 | 0.5501 | 0.4912

c1ccccc1 [benzene]
[1]
Conditions | speed of sound, 288.15 K [m/s] | speed of sound, 298.15 K [m/s] | speed of sound, 308.15 K [m/s] | speed of sound, 318.15 K [m/s] | viscosity, 288.15 K [mPa·s] | viscosity, 298.15 K [mPa·s] | viscosity, 308.15 K [mPa·s] | viscosity, 318.15 K [mPa·s]
101 kPa | 1352.4 | – | – | – | 0.693 | – | – | –
101.33 kPa | – | 1303.5 | 1257.4 | 1207.2 | – | 0.6025 | 0.5395 | 0.467

c1ccccc1 [benzene] + C1CCOC1
[2], x2 = 0
Conditions | speed of sound [m/s] | viscosity [mPa·s]
288.15 K | 1352.4 | 0.693
298.15 K | 1303.5 | 0.6025
308.15 K | 1257.4 | 0.5395
318.15 K | 1207.2 | 0.467

C1CCOC1 [tetrahydrofuran]
[1]
Conditions | speed of sound, 288.15 K [m/s] | speed of sound, 298.15 K [m/s] | speed of sound, 308.15 K [m/s] | speed of sound, 318.15 K [m/s] | viscosity, 288.15 K [mPa·s] | viscosity, 298.15 K [mPa·s] | viscosity, 308.15 K [mPa·s] | viscosity, 318.15 K [mPa·s]
101 kPa | 1323.1 | 1277.6 | 1231.5 | 1187.2 | 0.5129 | – | – | –
101.33 kPa | – | 1276.6 | 1231.7 | 1186.4 | – | 0.458 | 0.4125 | 0.3762

C1CCOC1 [tetrahydrofuran] + Cc1cc(C)cc(C)c1
[2], x1 = 1
Conditions | speed of sound [m/s] | viscosity [mPa·s]
288.15 K | 1323.1 | 0.5129
298.15 K | 1277.6 | 0.458
308.15 K | 1231.5 | 0.4125
318.15 K | 1187.2 | 0.3762

C1CCOC1 [tetrahydrofuran] + Cc1ccc(C)cc1
[2], x1 = 1
Conditions | speed of sound [m/s] | viscosity [mPa·s]
288.15 K | 1323.1 | 0.5129
298.15 K | 1277.6 | 0.458
308.15 K | 1231.5 | 0.4125
318.15 K | 1187.2 | 0.3762

C1CCOC1 [tetrahydrofuran] + Cc1cccc(C)c1
[2], x1 = 1
Conditions | speed of sound [m/s] | viscosity [mPa·s]
288.15 K | 1323.1 | 0.5129
298.15 K | 1277.6 | 0.458
308.15 K | 1231.5 | 0.4125
318.15 K | 1187.2 | 0.3762

C1CCOC1 [tetrahydrofuran] + Cc1ccccc1C
[2], x1 = 1
Conditions | speed of sound [m/s] | viscosity [mPa·s]
288.15 K | 1323.1 | 0.5129
298.15 K | 1277.6 | 0.458
308.15 K | 1231.5 | 0.4125
318.15 K | 1187.2 | 0.3762

Cc1ccccc1 [toluene]
[1]
Conditions | speed of sound, 288.15 K [m/s] | speed of sound, 298.15 K [m/s] | speed of sound, 308.15 K [m/s] | speed of sound, 318.15 K [m/s] | viscosity, 288.15 K [mPa·s] | viscosity, 298.15 K [mPa·s] | viscosity, 308.15 K [mPa·s] | viscosity, 318.15 K [mPa·s]
101 kPa | 1358.5 | – | – | – | 0.6456 | – | – | –
101.33 kPa | – | 1310.5 | 1266.2 | 1221 | – | 0.5531 | 0.502 | 0.4379

Cc1ccccc1 [toluene] + C1CCOC1
[2], x2 = 0
Conditions | speed of sound [m/s] | viscosity [mPa·s]
288.15 K | 1358.5 | 0.6456
298.15 K | 1310.5 | 0.5531
308.15 K | 1266.2 | 0.502
318.15 K | 1221 | 0.4379
